In US7521466B2, “Dipeptide phenyl ethers” (Bexel Pharmaceuticals, Inc., priority 2003, dated 2009):
Counter-ions that a name gives are not always drawn.

What was measured:
IL-1β = assay: LPS induced IL-1β production in THP-1 monocyte cells; type: cell-based, Human; conditions: THP-1 cells, LPS 1 μg/ml, 24 hours, ELISA
Description: (§1) Human THP-1 monocyte cells were cultured and incubated with compounds A and B at different concentrations. Cells were then challenged with lipopolysaccharides (LPS) at a concentration of (1 μg/ml) for 24 hours. Cell supernatants were then analyzed for the presence of TNFα, IL-1β and IL-6 cytokines by antibody directed enzyme-linked immunoassay (FIGS. 8A, 8B, and 8C).

ob/ob mice [1] = assay: Hyperglycemia and OGTT in diabetic obese ob/ob mice; type: in vivo; conditions: 50 mg/kg orally, 15-21 days
Description: The ob/ob mice is lacking leptin signaling and show hyperglycemia with significant weight gain. The compounds at a dose 50 mg/kg body weight were given orally in these animals for a period of 15-21 days.

ob/ob mice [2] = assay: Lipid profile (TG, VLDL, cholesterol, HDL) in ob/ob mice; type: in vivo; conditions: 15-day treatment study
Source text: The leptin knock-out ob/ob mice is also considered a good model for insulin resistance and hyperlipidemia. Treatment of these animals with the compounds A and B lowered serum triglycerides (FIG. 4A) and VLDL (FIG. 4B) concentration by >50%.

db/db mice [3] = assay: Testing hyperglycemia in diabetic db/db mice; type: in vivo; conditions: for improvement of hyperglycemic conditions (blood glucose): db/db mice, 5, 10 and 50 mg/kg body weight orally, 15-21 days; for drop in blood glucose in treated animals compared to control groups: db/db mice, time course experiment following the oral dose (FIGS. 1A, 2A)
Description: The hypoglycemic effect of compounds A and B have been examined in spontaneous animal models of diabetes, leptin receptor knockout (db/db mice). The db/db mice have defective leptin receptor and show hyperglycemia with significant weight gain. The compound at a dose of 5, 10 (FIGS. 1C, 2C) and 50 mg/kg body weight (FIGS. lB, 2B) was given orally in these animals for a period of 15-21 days.

ob/ob mice [4] = assay: Body weight gain, food and water intake in obese diabetic ob/ob mice; type: in vivo; conditions: 50 mg/kg orally, 15-21 days
Description: The ob/ob mice are lacking circulating leptin r and show hyperglycemia with significant weight gain. Both the compounds A and B at a dose of 50 mg/kg body weight were given orally in these animals for a period of 15-21 days.

IL-6 = assay: LPS induced IL-6 production in THP-1 monocyte cells; type: cell-based, Human; conditions: THP-1 cells, LPS 1 μg/ml, 24 hours, ELISA
Description: as §1

TNFα = assay: LPS induced TNFα production in THP-1 monocyte cells; type: cell-based, Human; conditions: THP-1 cells, LPS 1 μg/ml, 24 hours, ELISA
Description: as §1

[5] = tested on: Human THP-1 monocyte cells; assay: Cell viability of THP-1 monocyte cells; type: cell-based; conditions: THP-1 cells, highest concentration of the compound
db/db mice [6] = assay: Body weight gain, food and water intake in db/db mice; type: in vivo; conditions: 50 mg/kg orally, 15-21 days
Description: The db/db mice have defective leptin receptor and show hyperglycemia with significant weight gain. The compound B at a dose of 50 mg/kg body weight was given orally in these animals for a period of 15-21 days.

[7] = tested on: 3T3-L1 differentiated adipocytes; assay: Basal glucose uptake in 3T3-L1 adipocytes; type: cell-based; conditions: 72 hr treatment, absence of insulin, control 0.1% DMSO
Description: Basal glucose uptake was carried out in 3T3-L1 differentiated adipocytes. After 72 hr of treatment they were challenged with either rosiglitazone or Compound A, then glucose uptake was carried out in absence of insulin. The control was 0.1% DMSO. Cytochalasin B was added in another set of wells to show the effect is receptor mediated.

3T3-L1 fibroblasts = assay: Adipogenesis (lipid accumulation, oil red O) in 3T3-L1 fibroblasts; type: cell-based; conditions: 0.1 and 10 uM, 7 days, oil red O staining
Description: Rosiglitazone and Compound A at 0.1 and 10 uM concentrations, were treated for 7 days and at the end lipid droplets were stained with oil red O and visualized under microscope.

Row | SMILES | inhibition of IL-1β production (IL-1β) | OGTT (oral glucose tolerance) (ob/ob mice [1]) | improvement of hyperglycemic conditions (ob/ob mice [1]) | decrease in serum cholesterol concentrations (ob/ob mice [2]) | improvement of hyperglycemic conditions (blood glucose) (db/db mice [3]) | drop in blood glucose in treated animals compared to control groups (db/db mice [3]) | body weight gain compared to controls (ob/ob mice [4]) | food intake compared to control groups (ob/ob mice [4]) | water intake compared to control groups (ob/ob mice [4]) | inhibition of IL-6 production (IL-6) | inhibition of TNFα production (TNFα) | cell viability [5] | body weight gain compared to controls (db/db mice [6]) | food intake compared to control groups (db/db mice [6]) | water intake compared to control groups (db/db mice [6]) | basal glucose uptake compared to control cells [7] | adipogenesis (lipid accumulation) compared to rosiglitazone (3T3-L1 fibroblasts)
1 | COC(=O)C(Cc1ccc(Oc2ccc(C=C3SC(=O)NC3=O)cc2)cc1)NC(=O)C(N)Cc1c[nH]cn1.Cl.Cl (centres unmarked) [Compound B, 5-[4-(4-(2-(2-Amino-3-imidazol-4-ylpropanamido)-2-methoxycarbonylethyl)phenoxy)benzylidene]thiazolidin-2,4-dione dihydrochloride] | inhibit the production of three major pro-inflammatory cytokines in a dose dependent manner | significant improvement of OGTT | significant improvements of hyperglycemic conditions | 19% | significant improvements of hyperglycemic conditions | 24% | significant reductions in body weight gain | improved significantly | improved significantly | inhibit the production of three major pro-inflammatory cytokines in a dose dependent manner | inhibit the production of three major pro-inflammatory cytokines in a dose dependent manner | No significant change in cell viability | significant reductions in body weight gain | improved significantly | improved significantly |  | 
2 | COC(=O)C(Cc1ccc(Oc2ccc(CC3SC(=O)NC3=O)cc2)cc1)NC(=O)C(N)Cc1cnc[nH]1 (centres unmarked) [Compound A, 5-[4-(4-(2-(2-amino-3-imidazol-4-ylpropanamido)-2-methoxycarbonylethyl)phenoxy)benzyl]thiazolidin-2,4-dione dihydrochloride] | inhibit the production of three major pro-inflammatory cytokines in a dose dependent manner | significant improvement of OGTT | significant improvements of hyperglycemic conditions | 19% | significant improvements of hyperglycemic conditions | 30% | significant reductions in body weight gain | improved significantly | improved significantly | inhibit the production of three major pro-inflammatory cytokines in a dose dependent manner | inhibit the production of three major pro-inflammatory cytokines in a dose dependent manner | No significant change in cell viability |  |  |  | significant increase in basal glucose uptake | did not show any adipogenesis
